Results: ChEMBL document CHEMBL4004853, “Design, synthesis and biological evaluation of thienopyrimidine hydroxamic acid based derivatives as structurally novel histone deacetylase (HDAC) inhibitors” (Eur J Med Chem, 2017)
pIC50: −log10 of the molar value.

What was measured:
RPMI-8226 = experiment: Antiproliferative activity against human RPMI8226 cells after 72 hrs by CellTiter 96 AQueous Non-Radioactive assay; type: functional, cell-based; conditions: RPMI-8226, 72 h
Histone deacetylase 3 = Histone deacetylase 3 (Homo sapiens, UniProt O15379); experiment: Inhibition of full length recombinant human GST fused His6-tagged HDAC3 expressed in baculovirus infected High5 cells using Ac-Lys-Tyr-Lys(epsilon-acetyl)-AMC as substrate measured after 24 hrs
Histone deacetylase 1 [1] = target: T1, Histone deacetylase 1 (Homo sapiens, UniProt Q13547); experiment: Inhibition of full length recombinant human GST fused His6-tagged HDAC1 expressed in baculovirus infected High5 cells using Ac-Lys-Tyr-Lys(epsilon-acetyl)-AMC as substrate measured after 24 hrs
[2] = target: T2, Protein deacetylase HDAC6 (Homo sapiens, UniProt Q9UBN7); experiment: Inhibition of full length recombinant human GST fused His6-tagged HDAC6 expressed in baculovirus infected High5 cells using Boc-Lys(epsilon-acetyl)-AMC as substrate measured after 3 hrs
T2 sequence (Q9UBN7 whole entry): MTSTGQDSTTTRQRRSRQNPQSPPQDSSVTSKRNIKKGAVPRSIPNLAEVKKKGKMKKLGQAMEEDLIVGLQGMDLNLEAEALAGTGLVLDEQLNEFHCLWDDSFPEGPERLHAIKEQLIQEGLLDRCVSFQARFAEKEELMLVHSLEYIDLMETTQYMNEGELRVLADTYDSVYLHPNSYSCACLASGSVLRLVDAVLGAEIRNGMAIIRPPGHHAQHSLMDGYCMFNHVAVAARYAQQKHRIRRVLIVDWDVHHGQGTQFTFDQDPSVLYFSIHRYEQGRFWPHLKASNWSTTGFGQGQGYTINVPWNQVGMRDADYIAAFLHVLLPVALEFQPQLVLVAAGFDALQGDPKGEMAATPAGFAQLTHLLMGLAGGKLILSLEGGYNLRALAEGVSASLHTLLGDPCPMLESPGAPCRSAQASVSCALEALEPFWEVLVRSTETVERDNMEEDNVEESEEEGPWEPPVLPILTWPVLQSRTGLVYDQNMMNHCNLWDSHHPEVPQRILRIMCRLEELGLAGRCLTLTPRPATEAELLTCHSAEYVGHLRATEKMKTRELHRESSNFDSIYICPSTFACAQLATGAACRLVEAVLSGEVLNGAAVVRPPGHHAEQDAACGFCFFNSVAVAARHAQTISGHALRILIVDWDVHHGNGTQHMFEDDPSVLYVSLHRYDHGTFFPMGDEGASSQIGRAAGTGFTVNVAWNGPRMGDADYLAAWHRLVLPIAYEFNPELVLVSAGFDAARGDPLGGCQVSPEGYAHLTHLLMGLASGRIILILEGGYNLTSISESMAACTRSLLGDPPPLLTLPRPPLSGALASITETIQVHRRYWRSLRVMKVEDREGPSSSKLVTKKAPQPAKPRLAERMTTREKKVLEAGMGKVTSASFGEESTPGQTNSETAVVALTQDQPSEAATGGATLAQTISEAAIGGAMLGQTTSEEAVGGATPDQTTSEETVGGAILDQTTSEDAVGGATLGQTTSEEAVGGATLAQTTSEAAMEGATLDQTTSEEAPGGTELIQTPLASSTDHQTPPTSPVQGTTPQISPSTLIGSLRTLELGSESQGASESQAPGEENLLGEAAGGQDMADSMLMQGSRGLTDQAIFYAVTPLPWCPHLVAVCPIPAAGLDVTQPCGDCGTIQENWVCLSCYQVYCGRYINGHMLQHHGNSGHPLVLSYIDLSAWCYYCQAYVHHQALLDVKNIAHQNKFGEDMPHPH

HCT-116 = experiment: Antiproliferative activity against human HCT116 cells after 72 hrs by CellTiter 96 AQueous Non-Radioactive assay; type: functional, cell-based; conditions: HCT-116, 72 h
[3] = target: T3, Protein deacetylase HDAC6 (Homo sapiens) (UniProt Q9UBN7); experiment: Inhibition of HDAC6 in human RPMI8226 cells assessed as increase in tubulin acetylation after 24 hrs by western blot analysis; type: cell-based
T3 sequence (whole entry): T2 sequence (Q9UBN7 whole entry)

Histone deacetylase 1 [4] = target: T1, Histone deacetylase 1; experiment: Inhibition of HDAC1 in human RPMI8226 cells assessed as increase in histone H3 acetylation after 24 hrs by western blot analysis; type: cell-based

T1 sequence (Q13547 whole entry, the tested form may be a part): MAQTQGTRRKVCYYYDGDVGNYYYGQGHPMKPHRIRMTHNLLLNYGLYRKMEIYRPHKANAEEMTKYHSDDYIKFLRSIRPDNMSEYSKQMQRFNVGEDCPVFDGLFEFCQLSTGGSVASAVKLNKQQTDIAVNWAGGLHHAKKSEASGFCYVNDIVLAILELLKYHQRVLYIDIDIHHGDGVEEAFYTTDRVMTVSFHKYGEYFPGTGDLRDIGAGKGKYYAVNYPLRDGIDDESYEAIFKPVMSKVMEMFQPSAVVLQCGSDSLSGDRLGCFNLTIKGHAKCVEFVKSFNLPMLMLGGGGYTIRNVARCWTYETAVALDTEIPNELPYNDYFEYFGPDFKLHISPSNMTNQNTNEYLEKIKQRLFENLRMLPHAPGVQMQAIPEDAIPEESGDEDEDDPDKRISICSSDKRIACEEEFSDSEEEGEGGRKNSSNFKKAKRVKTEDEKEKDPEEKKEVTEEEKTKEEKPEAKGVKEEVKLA
Sequence of Histone deacetylase 3 (O15379 whole entry, the tested form may be a part): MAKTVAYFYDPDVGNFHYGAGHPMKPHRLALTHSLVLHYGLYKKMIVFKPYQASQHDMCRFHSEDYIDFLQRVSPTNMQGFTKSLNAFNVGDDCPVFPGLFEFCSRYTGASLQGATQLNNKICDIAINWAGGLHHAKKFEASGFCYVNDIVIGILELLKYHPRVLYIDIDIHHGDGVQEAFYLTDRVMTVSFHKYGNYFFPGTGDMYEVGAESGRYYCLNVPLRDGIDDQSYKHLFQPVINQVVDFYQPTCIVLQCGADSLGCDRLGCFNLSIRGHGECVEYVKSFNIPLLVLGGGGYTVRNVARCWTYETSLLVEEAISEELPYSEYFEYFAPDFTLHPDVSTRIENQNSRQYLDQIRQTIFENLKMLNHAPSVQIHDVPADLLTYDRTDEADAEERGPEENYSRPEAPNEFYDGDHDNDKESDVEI

pIC50 (RPMI-8226)	pIC50 (Histone deacetylase 3)	pIC50 (Histone deacetylase 1 [1])	pIC50 [2]	pIC50 (HCT-116)	inhibition [3]	inhibition (Histone deacetylase 1 [4])	SMILES
5.80	6.83	6.93	7.23	5.84	–	–	CCc1cccc(Nc2ncnc3cc(NC(=O)CCCCCCC(=O)NO)sc23)c1
5.76	7.01	6.86	7.06	5.59	–	–	Cc1ccccc1Nc1ncnc2cc(NC(=O)CCCCCC(=O)NO)sc12
5.79	7.19	7.13	7.37	5.75	–	–	O=C(CCCCCCC(=O)Nc1cc2ncnc(Nc3cccc(F)c3)c2s1)NO
5.76	7.47	7.26	7.77	5.76	–	–	O=C(CCCCCCC(=O)Nc1cc2ncnc(Nc3cccc(Br)c3)c2s1)NO
5.90	7.67	7.21	7.68	5.88	Dose-dependent effect	Dose-dependent effect	COc1cccc(Nc2ncnc3cc(NC(=O)CCCCCCC(=O)NO)sc23)c1
5.80	7.70	7.35	7.70	5.68	Dose-dependent effect	Dose-dependent effect	N#Cc1cccc(Nc2ncnc3cc(NC(=O)CCCCCCC(=O)NO)sc23)c1
5.82	7.34	7.27	7.47	5.74	–	–	O=C(CCCCCCC(=O)Nc1cc2ncnc(Nc3cccc(Cl)c3)c2s1)NO
5.70	6.84	6.93	6.95	5.61	–	–	COc1ccc(Nc2ncnc3cc(NC(=O)CCCCCCC(=O)NO)sc23)c(C)c1
